Values joined by “and” are separate entries in the source; they are usually repeats but may differ in a detail not shown here. Identical values can stand only once. “Also recorded” adds a separate entry of the source. Like-named read-outs stand apart in the source and are kept apart here.
Tests used:
PIN8 N117A = target: T1, PIN8 N117A (Arabidopsis thaliana, UniProt Q9LFP6, N117A); test: SSM electrophysiology peak current, PIN8 N117A proteoliposomes; assay type: biochemical; conditions: for Relative Peak Current of WT (%): replicates; for current response / function of PIN8 N117A: N117A mutation
T1 construct: made in house
Protocol: SSM, using a SURFE2R N1 from Nanion Technologies, was conducted as described. In brief, soy polar lipid mix (38% phosphatidyl choline, 30% phosphatidyl ethanolamine, 18% phosphatidyl inositol, 7% phosphatidic acid and 7% other soy lipids) and 1-palmitoyl-2-oleoyl-sn-glycero-3-phosphocholin were purchased from Avanti. Liposomes were prepared in Ringer solution without Ca^2+ (115 mM NaCl, 2.5 mM KCl, 1 mM NaHCO3, 10 mM HEPES pH7.4, 1 mM MgCl2) and homogenized using a Lipsofast (Avestin) with a […]. Triton X-100 was added to the liposomes to a final concentration of 1% (v/v). Protein was added to liposomes to a calculated lipid-to-protein ratio (LPR) of 10 unless stated otherwise. The detergent was removed using 400 mg ml^−1 Bio Beads (BioRad) overnight at 4 °C in a rotary shaker. Proteoliposomes were frozen in liquid nitrogen and kept at −80 °C until use. Proteoliposomes were diluted 1:5 in Ringer solution without Ca^2+, sonicated five times and then applied to the sensors by centrifugation (30 min, 3,000 g, 4 °C). Non-activating buffer was Ringer solution without Ca^2+ as described unless specified otherwise, and activating buffer contained the substrate of interest. In most instances we used a single-solution exchange experiment. In this case proteoliposomes, immobilized on the supported membrane, are kept in non-activating buffer as specified. At the beginning of the experiment the non-activating buffer is replaced with fresh identical non-activating buffer, and after 1 s, activating buffer (same buffer containing substrate) is added. After another second, the buffer is replaced with non-activating buffer again. Current response is recorded throughout the entire 3 s. For competition or inhibition, the respective compound was present in non-activating and activating solutions. Each experiment was performed on at least two individual sensors. On each sensor each measurement consists of three technical replicates where the mean is calculated. KD values were determined as described previously. Briefly, the binding current induced by 100 µM NPA was recorded in the presence of different concentrations of the substrate under investigation ranging between 0 µM and 1,000 µM present in the activating solution and the non-activating solution (Extended Data Fig. 5b). […] The maximum peak current was then plotted as a function of the concentration of the substrate under investigation and plotted against the degree of inhibition and fitted with a one-site binding model using GraphPad Prism V10.4.1 The half maximal concentration corresponds to the KD of the substrate under investigation.
The protocol for expression and purification of AtPIN8 protein (Uniprot: Q9LFP6) in lauryl maltose neopentyl glycol was described previously. All point mutants were generated using Q5 Site-Directed mutagenesis kit (New England Biolabs). The C-flat Holey Carbon grids (CF-1.2/1.3, Cu-300 mesh) were glow-discharged for 45 s at 15 mA in a GloQube Plus (Quorum). […] After 1 h of incubation on ice, the sample was centrifuged at 16,000 g for 15 min before blotting to remove precipitation. A drop of 4 µl of each sample was applied to the glow-discharged grids, blotted with a Vitrobot Mark IV (ThermoFisher Scientific) using the following settings (temperature 4 °C, 100% humidity, blot time of 4 s, blot force −1) and vitrified in liquid ethane.

PIN8 Y150A = target: T2, PIN8 Y150A (Arabidopsis thaliana, UniProt Q9LFP6, Y150A); assay type: biochemical; conditions: for Imax / EC50: PIN8 Y150A, Michaelis–Menten fit; for EC50: read-out: EC50 of peak current response; for Peak current: Y150A, individual sensors
T2 construct: made in house

PIN8 S146A = target: T3, PIN8 S146A (Arabidopsis thaliana, UniProt Q9LFP6, S146A); assay type: biochemical; conditions: for Imax / EC50: PIN8 S146A, Michaelis–Menten fit; for EC50: read-out: EC50 of peak current response; for Peak current: individual sensors
T3 construct: made in house

A. thaliana PIN3 = target: T4, A. thaliana PIN3 (Arabidopsis thaliana, UniProt Q9S7Z8); test: Xenopus oocyte efflux assay, PIN3 with or without PID kinase; assay type: cell-based; conditions: for Rel. 2,4-D transport rate (% exported/min): replicates; for Rel. 2,4-D transport rate: PIN3 oocytes, individual experiments
T4 construct: expressed in transfected cells; host or cells: Xenopus oocytes (cRNA injection)
T4 sequence (Q9S7Z8 1-640): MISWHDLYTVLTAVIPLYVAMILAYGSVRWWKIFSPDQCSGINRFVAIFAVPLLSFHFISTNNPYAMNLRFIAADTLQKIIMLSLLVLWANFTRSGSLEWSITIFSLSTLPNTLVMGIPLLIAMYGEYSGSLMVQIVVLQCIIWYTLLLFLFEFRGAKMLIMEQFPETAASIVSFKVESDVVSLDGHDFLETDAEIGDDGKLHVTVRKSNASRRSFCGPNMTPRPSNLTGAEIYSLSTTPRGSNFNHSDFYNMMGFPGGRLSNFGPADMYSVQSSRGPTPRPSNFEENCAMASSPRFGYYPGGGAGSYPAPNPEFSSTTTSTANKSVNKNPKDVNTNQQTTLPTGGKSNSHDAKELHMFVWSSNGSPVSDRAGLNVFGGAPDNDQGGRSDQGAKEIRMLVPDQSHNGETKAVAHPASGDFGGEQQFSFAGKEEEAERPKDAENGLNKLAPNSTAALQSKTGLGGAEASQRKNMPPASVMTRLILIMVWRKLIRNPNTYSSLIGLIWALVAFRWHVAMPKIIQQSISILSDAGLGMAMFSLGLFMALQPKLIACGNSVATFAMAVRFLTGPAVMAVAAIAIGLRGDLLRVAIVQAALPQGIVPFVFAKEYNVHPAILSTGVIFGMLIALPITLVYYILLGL
Protocol: Oocyte efflux experiments were carried out as described[12],[20],[26]. Briefly, oocytes were injected with 150 ng transporter complementary RNA without or with 75 ng kinase cRNA. [^3H]-IAA (25 Ci mmol^−1) and [^3H]-4-CPA (37.7 Ci mmol^−1) was purchased from RC Tritec. [^3H]-2,4-D (25 Ci mmol^−1) was purchased from ARC. Oocytes were injected with substrate to reach an internal concentration of 1 µM, corresponding to 100%. Residual radioactivity was determined for each individual oocyte by liquid scintillation counting after the time points indicated and are expressed relative to the initial 100%. Each time point represents the mean and s.e. of ten oocytes. To calculate the relative transport rate in percentage per minute, linear regression was performed. Each data point in Fig. 1b,c and Extended Data Fig. 2b,e represents the transport rate of one biological replicate using oocytes collected from different Xenopus females.

T3 sequence (Q9LFP6 whole entry S146A): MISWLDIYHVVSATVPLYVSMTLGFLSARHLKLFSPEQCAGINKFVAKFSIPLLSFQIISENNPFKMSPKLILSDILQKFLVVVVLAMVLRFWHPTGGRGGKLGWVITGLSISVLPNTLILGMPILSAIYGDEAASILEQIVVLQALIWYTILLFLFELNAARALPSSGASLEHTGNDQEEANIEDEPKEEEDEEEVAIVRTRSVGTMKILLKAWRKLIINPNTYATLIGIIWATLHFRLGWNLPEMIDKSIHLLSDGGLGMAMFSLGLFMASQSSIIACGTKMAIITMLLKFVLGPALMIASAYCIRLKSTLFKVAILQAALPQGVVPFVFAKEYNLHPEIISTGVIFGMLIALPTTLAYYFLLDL
T1 sequence (Q9LFP6 whole entry N117A): as the sequence (Q9LFP6 whole entry S146A) above, with N117A, A146S counted along it
T2 sequence (Q9LFP6 whole entry Y150A): as the sequence (Q9LFP6 whole entry S146A) above, with A146S, Y150A counted along it

Compound	Imax (PIN8 Y150A) [nA]	EC50 (PIN8 Y150A) [µM]	Peak current (PIN8 Y150A; 5 µM substrate)	Peak current (PIN8 Y150A; 20 µM substrate)	Peak current (PIN8 Y150A; 50 µM substrate)	Peak current (PIN8 Y150A; 100 µM substrate)	Peak current (PIN8 Y150A; 500 µM substrate)	Peak current (PIN8 Y150A; 1000 µM substrate)	Peak current (PIN8 Y150A; 2000 µM substrate)	Imax (PIN8 S146A) [nA]	EC50 (PIN8 S146A) [µM]	Peak current (PIN8 S146A; S146A, 5 µM substrate)	Peak current (PIN8 S146A; S146A, 20 µM substrate)	Peak current (PIN8 S146A; S146A, 50 µM substrate)	Peak current (PIN8 S146A; S146A, 100 µM substrate)	Peak current (PIN8 S146A; S146A, 500 µM substrate)	Peak current (PIN8 S146A; S146A, 1000 µM substrate)	Peak current (PIN8 S146A; S146A, 2000 µM substrate)	current response / function of PIN8 N117A (PIN8 N117A)	also measured
O=C(O)Cc1c[nH]c2ccccc12 [IAA, indole-3-acetic acid]	4 ± 0.3	1210 ± 298	0.07393 nA and 0.1605 nA and 0.184 nA	0.162 nA and 0.2178 nA and 0.2518 nA	0.2702 nA and 0.3405 nA and 0.3285 nA	0.09437 nA and 0.3629 nA and 0.1017 nA	0.8668 nA and 1.165 nA and 0.6916 nA	1.921 nA and 2.062 nA and 1.677 nA	2.244 nA and 2.472 nA and 1.95 nA	8 ± 2	498 ± 191	0.4304 nA and 0.01967 nA and 0.2252 nA	0.857 nA and 0.324 nA and 0.6461 nA	1.458 nA and 0.6503 nA and 1.2348 nA	2.021 nA and 0.7074 nA and 1.578 nA	4.698 nA and 2.244 nA and 4.077 nA	6.329 nA and 3.684 nA and 6.024 nA	7.444 nA and 4.338 nA and 6.988 nA		Relative Peak Current of WT (%) (PIN8 N117A; Substrate IAA, 100µM): 3.5397% and 5.375% and 9.48% and 13.4511%; Relative Peak Current of WT (%) (PIN8 N117A; Substrate IAA, 2mM): 11.8985% and 14.7068% and 17.3968% and 15.4928%; fold-change difference to the respective EC50 of wildtype PIN8 (PIN8 S146A; S146A, direction (higher or lower affinity) shown by colour only): ~ 2 fold; Rel. IAA transport rate (% exported/min) (A. thaliana PIN3; PID +, NPA -, single experiments): 5.59 % exported/min and 5.28 % exported/min and 4.145 % exported/min
O=C(O)COc1ccc(Cl)cc1 [4-CPA, 4-chlorophenoxyacetic acid]	5 ± 0.4	2620 ± 263	0.004001 nA and 0.000964 nA and 0.005187 nA and 0.01098 nA	0.001883 nA and 0.005268 nA and 0.002512 nA and 0.004292 nA	0.02123 nA and 0.03866 nA and 0.02734 nA and 0.07514 nA	0.1072 nA and 0.1421 nA and 0.1118 nA and 0.1489 nA	0.7863 nA and 0.8129 nA and 0.8214 nA and 0.8974 nA	1.36 nA and 1.41 nA and 1.338 nA and 1.516 nA	2.1396 nA and 2.167 nA and 2.059 nA and 2.335 nA	8 ± 2		0.16 nA and 0.306 nA and 0.183 nA and 0.211 nA	0.62 nA and 0.288 nA and 0.616 nA	1.139 nA and 1.066 nA and 1.161 nA and 1.319 nA	1.866 nA and 1.352 nA and 1.859 nA and 2.228 nA	4.245 nA and 2.76 nA and 4.229 nA and 5.107 nA	5.47 nA and 3.518 nA and 5.371 nA and 6.513 nA	6.809 nA and 4.912 nA and 6.602 nA and 8.134 nA	abolishes the current response	Relative Peak Current of WT (%) (PIN8 N117A; Substrate 4-CPA, 100µM): 1.438% and 7.087% and 13.2919% and 50.142%; Relative Peak Current of WT (%) (PIN8 N117A; Substrate 4-CPA, 2mM): 17.5134% and 20.2019% and 18.4651% and 19.2453%
O=C(O)COc1ccc(Cl)cc1Cl [2,4-D, 2,4-dichlorophenoxyacetic acid]	5 ± 1	684 ± 256	0.1509 nA and 0.05154 nA and 0.05368 nA and 0.1258 nA	0.08307 nA and 0.2336 nA and 0.2155 nA and 0.2901 nA	0.3395 nA and 0.5519 nA and 0.4679 nA and 0.5665 nA	0.6832 nA and 0.8682 nA and 0.7895 nA and 0.907 nA	2.171 nA and 2.337 nA and 2.071 nA and 2.343 nA	3.151 nA and 3.173 nA and 2.762 nA and 3.101 nA	4.437 nA and 4.148 nA and 3.583 nA and 4.038 nA	8 ± 0.9	164 ± 67	0.446 nA and 0.486 nA and 0.471 nA and 0.573 nA	1.337 nA and 0.845 nA and 1.226 nA and 1.49 nA	2.387 nA and 1.739 nA and 2.167 nA and 2.694 nA	3.422 nA and 2.581 nA and 3.052 nA and 3.828 nA	6.088 nA and 4.842 nA and 5.334 nA and 6.787 nA	7.15 nA and 6.069 nA and 6.109 nA and 7.864 nA	8.119 nA and 7.96 nA and 6.88 nA and 9.033 nA	abolishes the current response; also recorded: abolishes function	Relative Peak Current of WT (%) (PIN8 N117A; Substrate 2,4-D, 2mM): 22.8804% and 23.9685% and 24.9449% and 20.0988%; Relative Peak Current of WT (%) (PIN8 N117A; Substrate 2,4-D): 9.311% and 12.1121% and 13.3294% and 14.1031%; Rel. 2,4-D transport rate (% exported/min) (A. thaliana PIN3; PID +): 2.469 % exported/min and 1.491 % exported/min and 1.857 % exported/min; Rel. 2,4-D transport rate (% exported/min) (A. thaliana PIN3; PID -): 1.104 % exported/min and -0.5881 % exported/min and -1.06 % exported/min; export rate relative to the IAA transport rate (A. thaliana PIN3; PIN3 activated by PID kinase, NPA-sensitive): about half of the IAA transport rate; Rel. 2,4-D transport rate (A. thaliana PIN3; PID +, NPA + (10 μM)): 0.306 % exported/min and 0.1671 % exported/min and -0.318 % exported/min; Rel. 2,4-D transport rate (A. thaliana PIN3; PID +, NPA -): 2.085 % exported/min and 2.202 % exported/min and 1.56 % exported/min; Rel. 2,4-D transport rate (A. thaliana PIN3; PID -, NPA + (10 μM)): 0.4736 % exported/min and -0.2953 % exported/min and -0.2713 % exported/min; Rel. 2,4-D transport rate (A. thaliana PIN3; PID -, NPA -): -0.1695 % exported/min and 0.4151 % exported/min and -0.6296 % exported/min
